This note sets out measurements from ChEMBL document CHEMBL6120982, “Cell-penetrating anti-sense peptide nucleic acids targeting sulfatase 2 inhibit adipogenesis in human mesenchymal stem cells” (Bioorg Med Chem, 2024).

Active and inactive are the calls of the source. No cut-off for these calls is given here. Bounds are passed on as bounds.

Data set [1] has as its system DNA. The experiment in a line: Binding affinity to 10-mer DNA (unknown origin) assessed as melting temperature at 4 uM by UV-Vis spectrophotometric analysis. The data set is classed as nucleic-acid assay.
The test system of data set [2] is Mesenchymal stem cells. The experiment in a line: Effect on osteogenesis in ascorbic acid/dexamethasone/beta-glycerol phosphate differentiated human BMMSC cells. The data set is classed as functional, cell-based.
The subject of data set [3] is DNA. The experiment in a line: Binding affinity to N-terminal of 10-mer c-DNA (unknown origin) assessed as melting temperature at 4 uM by UV-Vis spectrophotometric analysis. The data set is classed as nucleic-acid assay.
Data set [4] concerns Mesenchymal stem cells. The experiment in a line: Cytotoxicity against human BMMSC cells assessed as effect on cell viability upto 1 uM incubated for 24 hrs by CCK8 assay. The data set is classed as toxicity, cell-based.
The test system of data set [5] is Mesenchymal stem cells. The data set is described as follows: Inhibition of SULF2 mRNA expression in human BMMSC cells at 0.1 uM by RT-qPCR analysis. The data set is classed as functional, cell-based.
Data set [6] deals with DNA. The experiment in a line: Binding affinity to C-terminal of 10-mer c-DNA (unknown origin) assessed as melting temperature at 4 uM by UV-Vis spectrophotometric analysis. The data set is classed as nucleic-acid assay.
Data set [7] concerns Mesenchymal stem cells. The data set is described as follows: Anti-adipogenic activity in insulin/dexamthasone/pioglitazone/IBMX differentiated human BMMSC cells assessed as downregulation of adiponectin protein secretion at 1 uM by ELISA. The data set is classed as functional, cell-based.
The test system of data set [8] is Mesenchymal stem cells. The data set is described as follows: Anti-adipogenic activity in insulin/dexamthasone/pioglitazone/IBMX differentiated human BMMSC cells assessed as downregulation of adiponectin protein secretion by ELISA. The data set is classed as functional, cell-based.
In data set [9] the test system is Mesenchymal stem cells. The data set is described as follows: Inhibition of SULF2 mRNA expression in human BMMSC cells by RT-qPCR analysis. The data set is classed as functional, cell-based. The following applies: dose 0.01-1 µM.

As to `Cc1cn(CC(=O)N(CCN)CC(=O)NCCN(CC(=O)NCCN(CC(=O)NCCN(CC(=O)NCCN(CC(=O)NCCN(CC(=O)NCCN(CC(=O)NCCN(CC(=O)NCCN(CC(=O)NCCN(CC(N)=O)C(=O)Cn2cnc3c(N)ncnc32)C(=O)Cn2ccc(N)nc2=O)C(=O)Cn2cnc3c(=O)[nH]c(N)nc32)C(=O)Cn2cnc3c(N)ncnc32)C(=O)Cn2ccc(N)nc2=O)C(=O)Cn2cnc3c(N)ncnc32)C(=O)Cn2cnc3c(=O)[nH]c(N)nc32)C(=O)Cn2cnc3c(N)ncnc32)C(=O)Cn2ccc(N)nc2=O)c(=O)[nH]c1=O`, in the data set on DNA [1], the Tm worked out at 66.2 °C.

With `NCCCCCNc1nc(N)c2ncn(CC(=O)N(CCNC(=O)CN(CCNC(=O)CN(CCNC(=O)CN(CCNC(=O)CN(CCNC(=O)CN(CCN)C(=O)Cn3cnc4c(N)ncnc43)C(=O)Cn3cnc4c(=O)[nH]c(N)nc43)C(=O)Cn3ccc(N)nc3=O)C(=O)Cn3cnc4c(N)ncnc43)C(=O)Cn3ccc(N)nc3=O)CC(=O)NCCN(CC(=O)NCCN(CC(=O)NCCN(CC(=O)NCCN(CC(N)=O)C(=O)Cn3cnc4c(N)ncnc43)C(=O)Cn3ccc(N)nc3=O)C(=O)Cn3cnc4c(N)ncnc43)C(=O)Cn3cnc4c(=O)[nH]c(N)nc43)c2n1`, in the data set on DNA [1], the Tm was 69.2 °C.

As to `Cc1cn(CC(=O)N(CCN)CC(=O)NCCN(CC(=O)NCCN(CC(=O)NCCN(CC(=O)NCCN(CC(=O)NCCN(CC(=O)NCCN(CC(=O)NCCN(CC(=O)NCCN(CC(=O)NCCN(CC(N)=O)C(=O)Cn2cnc3c(N)ncnc32)C(=O)Cn2cc3cc(COCCN)[nH]c3nc2=O)C(=O)Cn2cnc3c(=O)[nH]c(N)nc32)C(=O)Cn2cnc3c(N)ncnc32)C(=O)Cn2cc3cc(COCCN)[nH]c3nc2=O)C(=O)Cn2cnc3c(N)ncnc32)C(=O)Cn2cnc3c(=O)[nH]c(N)nc32)C(=O)Cn2cnc3c(N)ncnc32)C(=O)Cn2ccc(N)nc2=O)c(=O)[nH]c1=O`, in the data set on DNA [1], the Tm was 76.4 °C.

In the case of `NCCOCc1cc2cn(CC(=O)N(CCNC(=O)CN(CCNC(=O)CN(CCNC(=O)CN(CCNC(=O)CN(CCN)C(=O)Cn3ccc(N)nc3=O)C(=O)Cn3cnc4c(N)ncnc43)C(=O)Cn3cnc4c(=O)[nH]c(N)nc43)C(=O)Cn3cnc4c(N)ncnc43)CC(=O)NCCN(CC(=O)NCCN(CC(=O)NCCN(CC(=O)NCCN(CC(=O)NCCN(CC(N)=O)C(=O)Cn3ccc(N)nc3=O)C(=O)Cn3cnc4c(=O)[nH]c(N)nc43)C(=O)Cn3cnc4c(N)ncnc43)C(=O)Cn3cnc4c(=O)[nH]c(N)nc43)C(=O)Cn3cnc4c(N)ncnc43)c(=O)nc2[nH]1`, the Tm in the data set on DNA [1] came out at 77.2 °C.

In the case of `Cc1cn(CC(=O)N(CCNC(=O)CN(CCNC(=O)CN(CCNC(=O)CN(CCNC(=O)CN(CCNC(=O)CN(CCNC(=O)CN(CCNC(=O)CN(CCNC(=O)CN(CCNC(=O)CN(CCNC(=O)CN(CCNC(=O)CN(CCNC(=O)CN(CCNC(=O)CN(CCNC(=O)CN(CCNC(=O)CN(CCNC(=O)CN(CCNC(=O)CN(CCNC(=O)OCCC2c3ccccc3-c3ccccc32)C(=O)Cn2cc(C)c(=O)[nH]c2=O)C(=O)Cn2cnc3c(=O)[nH]c(N)nc32)C(=O)Cn2ccc(N)nc2=O)C(=O)Cn2cnc3c(N)nc(NCCCCCN)nc32)C(=O)Cn2cc(C)c(=O)[nH]c2=O)C(=O)Cn2cnc3c(=O)[nH]c(N)nc32)C(=O)Cn2cnc3c(=O)[nH]c(N)nc32)C(=O)Cn2cnc3c(N)nc(NCCCCCN)nc32)C(=O)Cn2cnc3c(N)ncnc32)C(=O)Cn2ccc(N)nc2=O)C(=O)Cn2cc3cc(COCCN)[nH]c3nc2=O)C(=O)Cn2cc(C)c(=O)[nH]c2=O)C(=O)Cn2cnc3c(=O)[nH]c(N)cc32)C(=O)Cn2ccc(N)nc2=O)C(=O)Cn2cnc3c(N)nc(NCCCCCN)nc32)C(=O)Cn2cnc3c(N)ncnc32)C(=O)Cn2cnc3c(=O)[nH]c(NCCCCCCN)nc32)CC(=O)NCCN(CC(=O)NCCN(CC(N)=O)C(=O)Cn2cnc3c(N)ncnc32)C(=O)Cn2ccc(N)nc2=O)c(=O)[nH]c1=O`, in the data set on Mesenchymal stem cells [2], the result was inactive. Further, the figures for the Tm in the data set with DNA [3] and in the data set with DNA [6] were 66.4 °C and 51.1 °C, respectively. The Activity result in the data set with Mesenchymal stem cells [4] was “Non-toxic”. In addition, the inhibition result in the data set with Mesenchymal stem cells [5] was “inactive”.

For the compound `Cc1cn(CC(=O)N(CCNC(=O)CN(CCNC(=O)CN(CCNC(=O)CN(CCNC(=O)CN(CCNC(=O)CN(CCNC(=O)CN(CCNC(=O)CN(CCNC(=O)CN(CCNC(=O)CN(CCNC(=O)CN(CCNC(=O)CN(CCNC(=O)CN(CCNC(=O)CN(CCNC(=O)CN(CCNC(=O)CN(CCNC(=O)CN(CCNC(=O)CN(CCNC(=O)CN(CCNC(=O)OCCC2c3ccccc3-c3ccccc32)C(=O)Cn2ccc(N)nc2=O)C(=O)Cn2cc3cc(COCCN)[nH]c3nc2=O)C(=O)Cn2ccc(N)nc2=O)C(=O)Cn2cc(C)c(=O)[nH]c2=O)C(=O)Cn2cnc3c(=O)[nH]c(NCCCCCCN)nc32)C(=O)Cn2ccc(N)nc2=O)C(=O)Cn2cc(C)c(=O)[nH]c2=O)C(=O)Cn2ccc(N)nc2=O)C(=O)Cn2cnc3c(=O)[nH]c(NCCCCCN)nc32)C(=O)Cn2ccc(N)nc2=O)C(=O)Cn2ccc(N)nc2=O)C(=O)Cn2cc(C)c(=O)[nH]c2=O)C(=O)Cn2cnc3c(=O)[nH]c(NCCCCCCN)nc32)C(=O)Cn2cc(C)c(=O)[nH]c2=O)C(=O)Cn2ccc(N)nc2=O)C(=O)Cn2ccc(N)nc2=O)C(=O)Cn2cnc3c(=O)[nH]c(NCCCCCCN)nc32)C(=O)Cn2cnc3c(=O)[nH]c(N)nc32)CC(=O)NCCN(N)C(=O)Cn2cnc3c(N)ncnc32)c(=O)[nH]c1=O`, in the data set with Mesenchymal stem cells [2], the outcome was inactive. Moreover, the Tm in the data set on DNA [3] was found to be 77 °C; in the data set on DNA [6] it was 63.5 °C. Further, the Activity result with Mesenchymal stem cells [4] was “Non-toxic”. Moreover, the inhibition entry in the data set on Mesenchymal stem cells [5] is “inactive”.

As to `NCCCCCCNc1nc2c(ncn2CC(=O)N(CCNC(=O)CN(CCNC(=O)CN(CCNC(=O)CN(CCNC(=O)CN(CCNC(=O)CN(CCN)C(=O)Cn2cnc3c(=O)[nH]c(N)nc32)C(=O)Cn2ccc(N)nc2=O)C(=O)Cn2cnc3c(N)ncnc32)C(=O)Cn2cnc3c(=O)[nH]c(NCCCCCCN)nc32)C(=O)Cn2cnc3c(N)nc(NCCCCCN)nc32)CC(=O)NCCN(CC(=O)NCCN(CC(=O)NCCN(CC(=O)NCCN(CC(N)=O)C(=O)Cn2cnc3c(=O)[nH]c(N)nc32)C(=O)Cn2cnc3c(N)ncnc32)C(=O)Cn2cnc3c(=O)[nH]c(NCCCCCCN)nc32)C(=O)Cn2ccc(N)nc2=O)c(=O)[nH]1`, the Tm in the data set with DNA [1] was determined as 74.8 °C.

As for `NCCN(CC(=O)NCCN(CC(=O)NCCN(CC(=O)NCCN(CC(=O)NCCN(CC(=O)NCCN(CC(=O)NCCN(CC(=O)NCCN(CC(=O)NCCN(CC(=O)NCCN(CC(N)=O)C(=O)Cn1cnc2c(N)ncnc21)C(=O)Cn1ccc(N)nc1=O)C(=O)Cn1cnc2c(N)ncnc21)C(=O)Cn1cnc2c(=O)[nH]c(N)nc21)C(=O)Cn1cnc2c(N)ncnc21)C(=O)Cn1ccc(N)nc1=O)C(=O)Cn1cnc2c(N)ncnc21)C(=O)Cn1ccc(N)nc1=O)C(=O)Cn1cnc2c(=O)[nH]c(N)nc21)C(=O)Cn1cnc2c(N)ncnc21`, the Tm in the data set on DNA [1] turned out to be 65.2 °C.

On to `NCCCCCNc1nc(N)c2ncn(CC(=O)N(CCNC(=O)CN(CCNC(=O)CN(CCNC(=O)CN(CCNC(=O)CN(CCN)C(=O)Cn3cnc4c(=O)[nH]c(N)nc43)C(=O)Cn3ccc(N)nc3=O)C(=O)Cn3cnc4c(N)ncnc43)C(=O)Cn3cnc4c(=O)[nH]c(N)nc43)CC(=O)NCCN(CC(=O)NCCN(CC(=O)NCCN(CC(=O)NCCN(CC(=O)NCCN(CC(N)=O)C(=O)Cn3cnc4c(=O)[nH]c(N)nc43)C(=O)Cn3cnc4c(N)ncnc43)C(=O)Cn3cnc4c(=O)[nH]c(N)nc43)C(=O)Cn3ccc(N)nc3=O)C(=O)Cn3cnc4c(=O)[nH]c(N)nc43)c2n1`, for which the Tm in the data set on DNA [1] was 75.9 °C.

For the compound `NCCN(CC(=O)NCCN(CC(=O)NCCN(CC(=O)NCCN(CC(=O)NCCN(CC(=O)NCCN(CC(=O)NCCN(CC(=O)NCCN(CC(=O)NCCN(CC(=O)NCCN(CC(N)=O)C(=O)Cn1ccc(N)nc1=O)C(=O)Cn1cnc2c(=O)[nH]c(N)nc21)C(=O)Cn1cnc2c(N)ncnc21)C(=O)Cn1cnc2c(=O)[nH]c(N)nc21)C(=O)Cn1cnc2c(N)ncnc21)C(=O)Cn1ccc(N)nc1=O)C(=O)Cn1cnc2c(N)ncnc21)C(=O)Cn1cnc2c(=O)[nH]c(N)nc21)C(=O)Cn1cnc2c(N)ncnc21)C(=O)Cn1ccc(N)nc1=O`, the Tm in the data set on DNA [1] was determined as 71 °C.

As for `Cc1cn(CC(=O)N(CCNC(=O)CN(CCNC(=O)CN(CCNC(=O)CN(CCNC(=O)CN(CCNC(=O)CN(CCNC(=O)CN(CCNC(=O)CN(CCNC(=O)CN(CCNC(=O)CN(CCNC(=O)CN(CCNC(=O)CN(CCNC(=O)CN(CCNC(=O)CN(CCNC(=O)CN(CCNC(=O)CN(CCNC(=O)CN(CCNC(=O)CN(CCNC(=O)CN(CCNC(=O)CN(CCNC(=O)OCCC2c3ccccc3-c3ccccc32)C(=O)Cn2cnc3c(=O)[nH]c(N)nc32)C(=O)Cn2cnc3c(=O)[nH]c(NCCCCCCN)nc32)C(=O)Cn2cnc3c(=O)[nH]c(N)nc32)C(=O)Cn2cnc3c(=O)[nH]c(N)nc32)C(=O)Cn2cc3cc(COCCN)[nH]c3nc2=O)C(=O)Cn2ccc(N)nc2=O)C(=O)Cn2ccc(N)nc2=O)C(=O)Cn2cnc3c(N)nc(NCCCCCN)nc32)C(=O)Cn2cc(C)c(=O)[nH]c2=O)C(=O)Cn2ccc(N)nc2=O)C(=O)Cn2cc(C)c(=O)[nH]c2=O)C(=O)Cn2cc(C)c(=O)[nH]c2=O)C(=O)Cn2cc3cc(COCCN)[nH]c3nc2=O)C(=O)Cn2cc(C)c(=O)[nH]c2=O)C(=O)Cn2cc(C)c(=O)[nH]c2=O)C(=O)Cn2cc(C)c(=O)[nH]c2=O)C(=O)Cn2cc(C)c(=O)[nH]c2=O)C(=O)Cn2cc(C)c(=O)[nH]c2=O)C(=O)Cn2cc(C)c(=O)[nH]c2=O)CC(N)=O)c(=O)[nH]c1=O`, in the data set on Mesenchymal stem cells [2], the outcome was inactive. Also, in the data set on DNA [3], the Tm was over 90 °C. Also, the Activity entry in the data set with Mesenchymal stem cells [4] is reported as “Non-toxic”. Moreover, the outcome in the data set on Mesenchymal stem cells [7] was Active. Besides, the inhibition entry in the data set with Mesenchymal stem cells [5] is “Mild_effect”; in the data set on Mesenchymal stem cells [9] it was “Dose-dependent-effect”. In addition, the IC50 in the data set with Mesenchymal stem cells [8] was over 1000 nM.

Turning to `NCCCCCCNc1nc2c(ncn2CC(=O)N(CCN)CC(=O)NCCN(CC(=O)NCCN(CC(=O)NCCN(CC(=O)NCCN(CC(=O)NCCN(CC(=O)NCCN(CC(=O)NCCN(CC(=O)NCCN(CC(=O)NCCN(CC(N)=O)C(=O)Cn2cnc3c(=O)[nH]c(N)nc32)C(=O)Cn2cnc3c(N)ncnc32)C(=O)Cn2cnc3c(=O)[nH]c(N)nc32)C(=O)Cn2ccc(N)nc2=O)C(=O)Cn2cnc3c(=O)[nH]c(N)nc32)C(=O)Cn2cnc3c(N)nc(NCCCCCN)nc32)C(=O)Cn2cnc3c(=O)[nH]c(N)nc32)C(=O)Cn2cnc3c(N)ncnc32)C(=O)Cn2ccc(N)nc2=O)c(=O)[nH]1`, the Tm in the data set on DNA [1] is 76.9 °C.
